Here are results for 19 molecules from US7205140B2, “Nucleotide sequence for creatinine deiminase and method of use” (CampusGen GmbH, priority 2003, dated 2007).

One may read the Km as the substrate concentration at which the rate is half of its maximum.

Data set [1] has as its system purified heterologously expressed creatinine deiminase from Tissierella creatinini. The data set is described as follows: Interference studies: compound added to the reaction mixture, creatinine deiminase activity determined (coupled optical test). It counts as biochemical. To be noted: for Maximum concentration without interference: compound added to standard reaction mixture, creatinine deiminase activity. The source says:
A technique for specifically measuring the creatinine concentration of a sample includes a simple indicator reaction step is provided, whereby no complicated auxiliary measurement reactions are necessary. […] Therefore, the subject creatinine deiminase polypeptide specifically and preferentially interacts with creatinine also in presence of other substrates with high specificity, without undue interference from other molecules which would otherwise compromise the accuracy of the measured value for the creatinine concentration in the sample.
(§1) The activity of the purified recombinant enzyme was determined using a modified enzymatic method developed by Bergmeyer (Bergmeyer, H. U. (1985), Methods of enzymatic analysis 8: 488–507). This method includes the measuring of free ammonia produced during a creatinine deiminase reaction via a coupled optical test, by measuring the […] of NADH consumed by the free ammonia at […] and/or 365 nm. The initial reaction comprised the following concentrations in a final volume of 0.6 ml: TEA buffer 0.11 mol/l, pH 8.6; creatinine 1.5 mmol/l; ADP 1.11 mmol/l; DTE 1 mmol/l; NADH 0.11 mmol/l; 2-oxoglutarate 11 mmol/l; glutamate dehydrogenase 8 U/ml. After incubating the reaction components (5 min at 37° C.), 0.01 ml of the purified recombinant enzyme was transferred to a cuvette and placed into a photometer for observing the extinction acceptance reaction at 340 nm. One enzyme unit was determined to catalyze the degrading of 1 μmol creatinine/min at 37° C.
A series of interference studies was performed using the purified and expressed creatinine deiminase polypeptide in the presence of the different serum compounds. The compound was provided to the standard reaction mixture and the creatinine deiminase activity was determined using the methods described above.

Data set [2] in a line: Enzyme activity of recombinant creatinine deiminase (coupled optical test / Jaffé method). Type of data set: biochemical. Here is the method:
The heterologous expression of an active creatinine deiminase derived from T. creatinini in E. coli (from the recombinant cell extract) was analyzed using gel electrophoresis (FIG. 8) and by determining the enzymatic activity in the cell-free raw extracts. […] Additionally, a band for the purified creatinine deiminase appeared at this same distance of 300 kDa (see FIG. 8, lanes 3 and 5), and likewise a similar band appeared in the raw extract of T. creatinini (FIG. 8, lane 2). The predicted size for creatinine deiminase (300 kDa) is well within range of the known value (288 kDa) as determined by Gottschalk et al. 1991 (supra). The specific activity of the recombinant creatinine deiminase in the cell-free extract was determined to be about 10.2 U/mg.
Heterologous sequences expressing creatinine deiminase (EC 3.5.4.21), as derived from T. creatinini, were also purified according to methods described by Gottschalk et al. 1991 (supra). The creatinine deiminase protein was purified from 5 g of cells using ammonium sulphate precipitation and chromatography to apparent homogeneity using phenylsepharose and DEAE-Sepharose CL6B (see FIG. 9). The specific activity of the purified recombinant enzyme was determined to be 1423 U/mg (see Table 2). The enzyme was suspended in a potassium phosphate buffer (KPP; pH 7.65, 50% Glycerin) and stored at −20° C. in. The purification steps are described as follows:
as §1

The nature of data set [3]: Storage stability of the purified enzyme in dialysis buffer. It counts as physicochemical. To be noted: in the dialysis buffer for several months. On the procedure: These samples were dialyzed using several rounds of fresh buffer (0.05 mol/l potassium phosphate, pH 7.65/glycerine, 1:2 v/v) at 4° C. until ammonia could no longer be detected.
The purified enzyme remained stable in the dialysis buffer for several months, experiencing a loss of activity of 9.1%. The optimal pH value for the purified enzyme, when suspended in phosphate and TEA buffers, was within the range of 8.5–8.75, with maximum activity measured at 47° C.

For the molecule `Nc1nc(=O)[nH]cc1F` [5-Fluorocytosine], the “Maximum concentration without interference” value in data set [1] was determined as 1000 mg/L.

For the molecule `CN[C@H](CC(C)C)C(=O)N[C@H]1C(=O)N[C@@H](CC(N)=O)C(=O)N[C@H]2C(=O)N[C@H]3C(=O)N[C@H](C(=O)N[C@H](C(=O)O)c4cc(O)cc(O)c4-c4cc3ccc4O)[C@H](O)c3ccc(c(Cl)c3)Oc3cc2cc(c3O[C@@H]2O[C@H](CO)[C@@H](O)[C@H](O)[C@H]2O[C@H]2C[C@](C)(N)[C@H](O)[C@H](C)O2)Oc2ccc(cc2Cl)[C@H]1O` [Vancomycin], in data set [1], the “Maximum concentration without interference” value is 288 mg/L.

Consider `NS(=O)(=O)c1cc(C(=O)O)c(NCc2ccco2)cc1Cl` [Fuoresemide], for which the “Maximum concentration without interference” value in data set [1] worked out at 4433 mg/L.

Regarding `N[C@@H](Cc1c[nH]cn1)C(=O)O` [Histidine], the “Maximum concentration without interference” value in data set [1] came out at 2250 mg/L.

For the molecule `NC[C@H](O)c1ccc(O)c(O)c1` [Norepinephrine], the “Maximum concentration without interference” value in data set [1] came to 1.5 mg/L.

As to `O=C(O)C(=O)O` [Oxalic acid], in data set [1], the “Maximum concentration without interference” value amounted to 400 mg/L.

With `C[C@](N)(Cc1ccc(O)c(O)c1)C(=O)O` [α-Methyl-Dopa], in data set [1], the “Maximum concentration without interference” value turned out to be 107 mg/L.

With `Nc1cc[nH]c(=O)n1` [Cytosine], the “concentration without any interference” value in data set [1] (as stated in the text for Table 1) is “up to 2000 mg/ml”. Also, in data set [1], the “Maximum concentration without interference” value stood at 2000 mg/L.

For the molecule `CC(C)=O` [Acetone], in data set [1], the “Maximum concentration without interference” value came out at 2000 mg/L.

As for `CC(=O)CC(=O)O` [Acetoacetate], the “Maximum concentration without interference” value in data set [1] is 7.8 mg/L.

For `C[C@H](CS)C(=O)N1CCC[C@H]1C(=O)O` [Captopril], in data set [1], the “Maximum concentration without interference” value turned out to be 83 mg/L.

For the molecule Hemoglobin, the “Maximum concentration without interference” value in data set [1] came out at 0 mg/L.

`CN(CC(=O)O)C(=N)N` [Creatine]: the “Maximum concentration without interference” value in data set [1] stood at 2000 mg/L.

`O=C(O)c1cc(/N=N/c2ccc(S(=O)(=O)Nc3ccccn3)cc2)ccc1O` [Salazosulphapyridine]: in data set [1], the “Maximum concentration without interference” value amounted to 550 mg/L.

For the molecule `COc1cc(Cc2cnc(N)nc2N)cc(OC)c1OC` [Trimethoprime], the “Maximum concentration without interference” value in data set [1] was 46 mg/L.

In the case of `CNC[C@H](O)c1ccc(O)c(O)c1` [Epinephrine], the “Maximum concentration without interference” value in data set [1] came out at 0.05 mg/L.

Regarding `Cc1cc(NS(=O)(=O)c2ccc(N)cc2)no1` [Sulphamethoxazole], the “Maximum concentration without interference” value in data set [1] worked out at 500 mg/L.

Take `CC(=O)O` [Acetic acid]: the “Maximum concentration without interference” value in data set [1] is 200 mg/L.

B1: recombinant creatinine deiminase: creatinine deiminase (EC 3.5.4.21) from Tissierella creatinini, heterologously expressed in E. coli; 406 amino acid polypeptide (protein, listed as Tissierella creatinini)
chain: MMKKFINAKIYKNNEATEILVEDGKIKEIGNNLADCKEVIDLGGKMVTPPYVDPHLHLDYVYTLAELGKTGAGSGTLFEAIEMWPVFKKTLTVESVKKLALKGVMDEVSQGVQHIRTHIDVTDPKFTGLKAMLEMKEELKDIVDIQIVSFPQQGMYTYKGGRELVEEALKMGADVVGGIPHYEPAREYGEMSVKATVELAMKYDKLIDVHCDETDDPQARFIELLNALVYLEGYGAKTSASHTCSFGSADDSYAYRMIDLFKKSKINFISNPTENAYLQGRHDTYPKRRGLTRVKEFMEHGINVAFAQDSINDPWYPMGNGNMMNILDNGIHLAQIMSPQDIEKDLDLITYNGARCLNIQDKYLLEVGKDSNFIVLNGDSPFDVIRNRANVLACVRKGEFYLSKNQ
For B1, the Km in data set [2] (Lineweaver Burke plot analysis) is 1100 µM. Also, in data set [2] (after phenylsepharose and DEAE-Sepharose CL6B), the “specific activity of the purified recombinant enzyme” value was 1423 U/mg. In data set [2] (cell-free extract of E. coli DH5α/pKT1), the “specific activity in the cell-free extract” value is reported as “about 10.2 U/mg”. Besides, the “optimal pH value” in data set [2] (in phosphate and TEA buffers) is listed as 8.5–8.75. Also, the Vmax in data set [2] (per protein) is on record as 1467 U/mg; in data set [2] (this enzyme preparation), 8.8 U/ml. In data set [3], this molecule returned a loss of activity of 9.1%.
